For four molecules, IC50 results are on record in ChEMBL document CHEMBL4414589, “Development of High-Throughput Fluorescent-Based Screens to Accelerate Discovery of P2X Inhibitors from Animal Venoms” (J Nat Prod, 2019).

What all share (assay type): cell-based
One assay addresses T1, P2X purinoceptor 7 (Homo sapiens, UniProt Q99572).
T1 sequence (Q99572 whole entry): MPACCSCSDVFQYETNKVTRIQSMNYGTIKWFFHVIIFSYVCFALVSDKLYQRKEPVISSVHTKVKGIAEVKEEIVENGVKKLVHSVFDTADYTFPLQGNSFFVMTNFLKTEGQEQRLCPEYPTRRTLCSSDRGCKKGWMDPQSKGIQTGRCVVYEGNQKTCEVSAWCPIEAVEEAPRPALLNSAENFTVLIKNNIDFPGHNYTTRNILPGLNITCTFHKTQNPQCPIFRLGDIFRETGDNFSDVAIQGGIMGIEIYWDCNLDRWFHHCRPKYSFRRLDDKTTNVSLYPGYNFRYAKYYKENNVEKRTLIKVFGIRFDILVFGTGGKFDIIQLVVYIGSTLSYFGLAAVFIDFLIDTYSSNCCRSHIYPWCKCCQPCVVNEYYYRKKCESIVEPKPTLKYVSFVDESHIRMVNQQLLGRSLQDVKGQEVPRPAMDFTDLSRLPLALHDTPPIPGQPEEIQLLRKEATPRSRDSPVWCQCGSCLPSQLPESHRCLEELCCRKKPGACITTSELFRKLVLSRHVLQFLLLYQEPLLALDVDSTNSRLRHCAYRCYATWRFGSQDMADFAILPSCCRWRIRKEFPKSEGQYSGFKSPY
Put plainly: Antagonist activity at human P2X7R transfected in HEK293 cells assessed as inhibition of ATP-mediated calcium influx measured after 10 mins by YOPRO-1 dye uptake assay.

Assay [1] addresses T2, P2X purinoceptor 4 (Homo sapiens, UniProt Q99571).
T2 sequence (Q99571 whole entry): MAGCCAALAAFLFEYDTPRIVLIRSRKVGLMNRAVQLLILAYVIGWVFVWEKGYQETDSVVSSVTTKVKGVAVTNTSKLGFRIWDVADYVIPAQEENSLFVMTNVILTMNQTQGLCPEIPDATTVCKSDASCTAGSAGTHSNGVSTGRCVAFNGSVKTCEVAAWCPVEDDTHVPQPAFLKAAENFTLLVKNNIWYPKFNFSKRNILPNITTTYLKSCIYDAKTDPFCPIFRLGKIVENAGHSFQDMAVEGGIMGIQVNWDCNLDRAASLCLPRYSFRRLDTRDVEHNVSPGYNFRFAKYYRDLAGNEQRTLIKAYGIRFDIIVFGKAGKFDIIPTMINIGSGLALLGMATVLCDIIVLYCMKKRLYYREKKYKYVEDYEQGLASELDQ
Put plainly: Antagonist activity at human P2X4R transfected in HEK293 cells assessed as inhibition of ATP-mediated calcium influx measured after 10 mins by YOPRO-1 dye uptake assay.

Assay [2] has as its target T2, P2X purinoceptor 4. Put plainly: Antagonist activity at human P2X4R transfected in 1321N1 cells assessed as inhibition of ATP-mediated calcium influx measured after 10 mins by Fura-2AM assay.

With `CC(C)c1cc(Br)c(NC(=O)Nc2cccnc2)c(Br)c1`, the IC50 entry at P2X purinoceptor 7 is listed as “Not Active”.

As for `Cc1ccc(S(=O)(=O)N2c3ccccc3Oc3ccccc32)cc1`, the IC50 result on P2X purinoceptor 7 is reported as “Not Active”. With `O=C1CN=C(c2cccc(Br)c2)c2oc3ccccc3c2N1`, at P2X purinoceptor 7, the IC50 result was “Not Active”.

With `O=C(CC12CC3CC(CC(C3)C1)C2)Nc1cccc2nc(NCCNCCO)ccc12`, the IC50 entry on P2X purinoceptor 4 [1] and on P2X purinoceptor 4 [2] was “Not Active” in each case.
